# Data taken from ChEMBL document CHEMBL6134890, “Terminally Symmetric β-Turn Peptides for Multidrug-Resistant Bacterial Infections” (J Med Chem, 2025).
# Activity calls are given as the source filed them. The rule behind the calls is not given here.
# Tests used:
# Cell membrane [1] = test: Disruption of cell membrane in multi-drug resistant Escherichia coli assessed as increase in red fluorescence intensity of PI at 2 times MIC measured for 2 hrs by fluorescence confocal microscopic imaging based analysis; type: subcellular
# Cell membrane [2] = test: Induction of cytoplasmic membrane depolarization in multi-drug resistant Escherichia coli at 1 to 4 times MIC measured within 1 min by DiSC3-5 fluorescent dye based analysis
# Escherichia coli [3] = test: Antimicrobial activity against multi-drug resistant Escherichia coli assessed as reduction in bacterial growth by broth dilution method; type: functional
# [4] = Hemolytic activity in human Red blood cell assessed as hemolysis incubated for 1 hrs by microplate reader based analysis; type: toxicity; details: erythrocyte
# Escherichia coli [5] = test: Antibiofilm activity against multi-drug resistant Escherichia coli at 0.5 times MIC measured after 24 hrs by crystal violet staining based analysis; type: functional, organism-based
# Cell membrane [6] = test: Disruption of cell membrane in multi-drug resistant Staphylococcus aureus assessed as appearance of ruptured cell surface at 2 times MIC measured for 120 mins by transmission electron microscopy analysis; type: subcellular
# Staphylococcus aureus [7] = test: Antimicrobial activity against multi-drug resistant Staphylococcus aureus assessed as reduction in bacterial growth at 2 times MIC measured after 1 hrs in presence of chymotrypsin by microplate reader based analysis; type: functional, organism-based
# Staphylococcus aureus [8] = test: Bactericidal activity against multi-drug resistant Staphylococcus aureus assessed as eradication of bacterial growth at 2 times MIC measured after 6 hrs by time-kill kinetic assay relative to control; type: functional
# Escherichia coli [9] = test: Bactericidal activity against multi-drug resistant Escherichia coli at 1 times MIC preincubated with LPS for 1 hrs followed by bacterial addition and measured after 18 hrs by microplate reader based analysis; type: functional, organism-based; details: time 19.0 hrs
# Staphylococcus aureus [10] = test: Antimicrobial activity against Staphylococcus aureus ATCC 25923 assessed as reduction in bacterial growth by broth dilution method; type: functional
# [11] = Half life of the compound in 25% plasma; type: ADME, cell-free
# Escherichia coli [12] = test: Antibiofilm activity against multi-drug resistant Escherichia coli measured after 24 hrs by crystal violet staining based analysis; type: functional, organism-based
# Staphylococcus aureus [13] = test: Antibacterial activity against Staphylococcus aureus ATCC 25923 at sub-inhibitory concentration measured after 15 passages for 18 hrs; type: functional; parameters: scale not given: the % may be the effect or the level left
# Staphylococcus aureus [14] = test: Antibiofilm activity in methicillin-resistant Staphylococcus aureus assessed as eradication of formed biofilm by measuring reduction in viable bacterial count measured after 12 hrs by confocal microscopy based analysis; type: functional, organism-based
# Escherichia coli [15] = test: Antibiofilm activity in […] assessed as eradication of formed biofilm at 1 to 4 times MIC measured after 12 hrs by confocal microscopy based analysis; type: functional, organism-based
# Staphylococcus aureus [16] = test: Antimicrobial activity against multi-drug resistant Staphylococcus aureus assessed as reduction in bacterial growth by broth dilution method; type: functional
# Escherichia coli [17] = test: Bactericidal activity against multi-drug resistant Escherichia coli assessed as eradication of bacterial growth at 2 times MIC by time-kill kinetic assay; type: functional, organism-based; details: time 120-720 min
# Enterococcus faecalis = test: Antimicrobial activity against multi-drug resistant Enterococcus faecalis assessed as reduction in bacterial growth by broth dilution method; type: functional
# Escherichia coli [18] = test: Bactericidal activity against multi-drug resistant Escherichia coli assessed as eradication of bacterial growth at 2 times MIC measured after 6 hrs by time-kill kinetic assay relative to control; type: functional
# Acinetobacter baumannii = test: Antimicrobial activity against multi-drug resistant Acinetobacter baumannii assessed as reduction in bacterial growth by broth dilution method; type: functional
# Escherichia coli [19] = test: Antimicrobial activity against multi-drug resistant Escherichia coli assessed as reduction in bacterial growth at 2 times MIC measured after 1 hrs in presence of trypsin by microplate reader based analysis; type: functional, organism-based
# Staphylococcus aureus [20] = test: Antibiofilm activity against multi-drug resistant Staphylococcus aureus measured after 24 hrs by crystal violet staining based analysis; type: functional, organism-based
# Staphylococcus aureus [21] = test: Antimicrobial activity against multi-drug resistant Staphylococcus aureus assessed as reduction in bacterial growth measured after 1 to 6 hrs in 25% plasma; type: functional, organism-based; details: time 1-6 hrs
# Escherichia coli [22] = test: Antimicrobial activity against multi-drug resistant Escherichia coli assessed as fold increase in MIC in presence of FeCl3; type: functional
# Escherichia coli [23] = test: Antibiofilm activity in […] assessed as eradication of formed biofilm by measuring reduction in viable bacterial count measured after 12 hrs by confocal microscopy based analysis; type: functional, organism-based
# Escherichia coli [24] = test: Antimicrobial activity against Escherichia coli ATCC 25922 assessed as reduction in bacterial growth by broth dilution method; type: functional
# [25] = test system: Staphylococcus epidermidis; test: Antimicrobial activity against multi-drug resistant Staphylococcus epidermidis assessed as reduction in bacterial growth by broth dilution method; type: functional
# Cell membrane [26] = test: Induction of outer membrane permeabilization in multi-drug resistant Escherichia coli assessed as NPN uptake at 1 to 4 times MIC measured within 1 min by fluorescence based analysis; type: subcellular
# Escherichia coli [27] = test: Antimicrobial activity against multi-drug resistant Escherichia coli assessed as fold increase in MIC in presence of KCl; type: functional
# Cell membrane [28] = test: Disruption of cell membrane in multi-drug resistant Staphylococcus aureus assessed as appearance of wrinkled cell surface at 2 times MIC measured for 120 mins by transmission electron microscopy analysis; type: subcellular
# Staphylococcus aureus [29] = test: Antimicrobial activity against multi-drug resistant Staphylococcus aureus assessed as reduction in bacterial growth at 2 times MIC measured after 1 hrs in presence of trypsin by microplate reader based analysis; type: functional, organism-based
# Cell membrane [30] = test: Disruption of cell membrane in multi-drug resistant Staphylococcus aureus assessed as increase in red fluorescence intensity of PI at 2 times MIC measured for 2 hrs by fluorescence confocal microscopic imaging based analysis; type: subcellular
# Klebsiella pneumoniae = test: Antimicrobial activity against multi-drug resistant Klebsiella pneumoniae assessed as reduction in bacterial growth by broth dilution method; type: functional
# Cell membrane [31] = test: Induction of cytoplasmic membrane depolarization in multi-drug resistant Staphylococcus aureus at 1 to 4 times MIC measured within 1 min by DiSC3-5 fluorescent dye based analysis
# Cell membrane [32] = test: Disruption of cell membrane in multi-drug resistant Escherichia coli assessed as appearance of ruptured cell surface at 2 times MIC measured for 120 mins by transmission electron microscopy analysis; type: subcellular
# Escherichia coli [33] = test: Antimicrobial activity against multi-drug resistant Escherichia coli assessed as reduction in bacterial growth at 2 times MIC measured after 1 hrs in presence of chymotrypsin by microplate reader based analysis; type: functional, organism-based
# Staphylococcus aureus [34] = test: Antibiofilm activity in methicillin-resistant Staphylococcus aureus assessed as eradication of formed biofilm at 1 to 4 times MIC measured after 12 hrs by confocal microscopy based analysis; type: functional, organism-based
# Staphylococcus aureus [35] = test: Bactericidal activity against multi-drug resistant Staphylococcus aureus assessed as eradication of bacterial growth at 2 times MIC by time-kill kinetic assay; type: functional, organism-based; details: time 120-720 min
# Escherichia coli [36] = test: Antimicrobial activity against multi-drug resistant Escherichia coli assessed as fold increase in MIC in presence of NaCl; type: functional
# Cell membrane [37] = test: Disruption of cell membrane in multi-drug resistant Escherichia coli assessed as appearance of wrinkled cell surface at 2 times MIC measured for 120 mins by transmission electron microscopy analysis; type: subcellular
smiles,measurement,setting,value
CC(C)C[C@H](NC(=O)[C@H](Cc1ccccc1)NC(=O)[C@@H]1CCCN1C(=O)[C@H](Cc1c[nH]c2ccccc12)NC(=O)[C@H](Cc1c[nH]c2ccccc12)NC(=O)[C@H](Cc1c[nH]c2ccccc12)NC(=O)[C@@H]1CCCN1C(=O)[C@H](Cc1ccccc1)NC(=O)[C@H](CCCNC(=N)N)NC(=O)[C@H](CCCNC(=N)N)NC(=O)[C@@H](N)C(C)C)C(=O)N[C@@H](CCCNC(=N)N)C(=O)N[C@@H](CCCNC(=N)N)C(=O)O,Activity,Cell membrane [1],Active
same,Activity,Cell membrane [2],Active
same,MIC,Escherichia coli [3],16 µM
same,HC10,[4],33.13 µM
same,Activity,Escherichia coli [5],inactive
same,Activity,Cell membrane [6],Active
same,Activity,Staphylococcus aureus [7],inactive
same,Activity,Staphylococcus aureus [8],100%
same,Activity,Escherichia coli [9],inactive
same,MIC,Staphylococcus aureus [10],8 µM
same,half-life,[11],1.7 h
same,Activity,Escherichia coli [12],Dose-dependent-effect
same,Activity,Staphylococcus aureus [13],100%
same,Activity,Staphylococcus aureus [14],Dose-dependent-effect
same,Activity,Escherichia coli [15],Active
same,MIC,Staphylococcus aureus [16],16 µM
same,Activity,Escherichia coli [17],Time-dependent-effect
same,MIC,Enterococcus faecalis,4 µM
same,Activity,Escherichia coli [18],100%
same,MIC,Acinetobacter baumannii,32 µM
same,Activity,Escherichia coli [19],inactive
same,Activity,Staphylococcus aureus [20],Dose-dependent-effect
same,Activity,Staphylococcus aureus [21],inactive
same,fold change (FC),Escherichia coli [22],2
same,Activity,Escherichia coli [23],Dose-dependent-effect
same,MIC,Escherichia coli [24],16 µM
same,MIC,[25],4 µM
same,Activity,Cell membrane [26],Active
same,fold change (FC),Escherichia coli [27],2
same,Activity,Cell membrane [28],Active
same,Activity,Staphylococcus aureus [29],inactive
same,Activity,Cell membrane [30],Active
same,MIC,Klebsiella pneumoniae,256 µM
same,Activity,Cell membrane [31],Active
same,Activity,Cell membrane [32],Active
same,Activity,Escherichia coli [33],inactive
same,Activity,Staphylococcus aureus [34],Active
same,Activity,Staphylococcus aureus [35],Time-dependent-effect
same,fold change (FC),Escherichia coli [36],2
same,Activity,Cell membrane [37],Active
